The results in this text go back to patent publication US11453703B2, “Heterotandem bicyclic peptide complexes” (BicycleTX Limited, priority 2018, dated 2022).

One series deals with T1, human Nectin-4 protein (Homo sapiens, UniProt Q96NY8).
T1 construct: Human Nectin-4 (residues Gly32-Ser349); host or cells: Sf21 insect cells (baculovirus, pFastbac-1)
T1 sequence (Q96NY8 32-349): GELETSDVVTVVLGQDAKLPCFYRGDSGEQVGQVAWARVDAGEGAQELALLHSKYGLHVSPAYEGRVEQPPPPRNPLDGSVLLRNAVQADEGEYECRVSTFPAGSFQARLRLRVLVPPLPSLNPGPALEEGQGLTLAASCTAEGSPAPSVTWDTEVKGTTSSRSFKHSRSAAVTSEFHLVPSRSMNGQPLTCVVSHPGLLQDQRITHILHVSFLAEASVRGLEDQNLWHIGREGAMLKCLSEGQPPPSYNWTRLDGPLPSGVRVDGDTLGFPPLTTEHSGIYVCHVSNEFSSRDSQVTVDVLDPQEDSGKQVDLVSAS
In words: Nectin-4 Biacore (SPR) binding assay. Conditions: biotinylated human Nectin-4, 25° C. How it is done: Biacore experiments were performed to determine ka (M^−1s^−1), kd (s^−1), KD (nM) values of heterotandem peptides binding to human Nectin-4 protein (obtained from Charles River). Human Nectin-4 (residues Gly32-Ser349; NCBI RefSeq: NP_112178.2) with a gp67 signal sequence and C-terminal FLAG tag was cloned into pFastbac-1 and baculovirus made using standard Bac-to-Bac™ protocols (Life Technologies). Sf21 cells at 1×10^6 ml^−1 in Excell-420 medium (Sigma) at 27° C. were infected at an MOI of 2 with a P1 virus stock and the supernatant harvested at 72 hours. The supernatant was batch bound for 1 hour at 4° C. with Anti-FLAG M2 affinity agarose resin (Sigma) washed in PBS and the resin subsequently transferred to a column and washed extensively with PBS. The protein was eluted with 100 μg/ml FLAG peptide. The eluted protein was concentrated to 2 ml and loaded onto an S-200 Superdex column (GE Healthcare) in PBS at 1 ml/min. 2 ml fractions were collected and the fractions containing Nectin-4 protein were concentrated to 16 mg/ml.
The protein was extensively desalted to remove uncoupled biotin using spin columns into PBS.
For analysis of peptide binding, a Biacore 3000 instrument was used with a CM5 chip (GE Healthcare). Streptavidin was immobilized on the chip using standard amine-coupling chemistry at 25° C. with HBS-N (10 mM HEPES, 0.15 M NaCl, pH 7.4) as the running buffer. Briefly, the carboxymethyl dextran surface was activated with a 7 minute injection of a 1:1 ratio of 0.4 M 1-ethyl-3-(3-dimethylaminopropyl) carbodiimide hydrochloride (EDC)/0.1 M N-hydroxy succinimide (NHS) at a flow rate of 10 μl/min. For capture of streptavidin, the protein was diluted to 0.2 mg/ml in 10 mM sodium acetate (pH 4.5) and captured by injecting 120 μl of streptavidin onto the activated chip surface. Residual activated groups were blocked with a 7 minute injection of 1 M ethanolamine (pH 8.5) and biotinylated Nectin-4 captured to a level of 1,200-1,800 RU. Buffer was changed to PBS/0.05% Tween 20 and a dilution series of the peptides was prepared in this buffer with a final DMSO concentration of 0.5%. The top peptide concentration was 100 nM with 6 further 2-fold dilutions. The SPR analysis was run at 25° C. at a flow rate of 50 μl/min with 60 seconds association and dissociation between 400 and 1,200 seconds depending upon the individual peptide. Data were corrected for DMSO excluded volume effects. All data were double-referenced for blank injections and reference surface using standard processing procedures and data processing and kinetic fitting were performed using Scrubber software, version 2.0c (BioLogic Software). Data were fitted using simple 1:1 binding model allowing for mass transport effects where appropriate.

The target in series [1] is T2, CD137 (Homo sapiens, UniProt Q07011). Kind of series: CD137 reporter assay, co-culture with Nectin-4 tumour cells.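 For all read-outs here: jurkat reporter cells co-cultured with tumour cells and test article for 6 h, luminescence signal relative to Jurkat plus tumour cells lacking test article.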 Also noted: host or cells: Jurkat reporter cells. The format is cell-based. Conditions: for Fold Induction over Background: tumour target Nectin4, co-culture with H1376, 6 h.
T2 sequence (Q07011 24-255): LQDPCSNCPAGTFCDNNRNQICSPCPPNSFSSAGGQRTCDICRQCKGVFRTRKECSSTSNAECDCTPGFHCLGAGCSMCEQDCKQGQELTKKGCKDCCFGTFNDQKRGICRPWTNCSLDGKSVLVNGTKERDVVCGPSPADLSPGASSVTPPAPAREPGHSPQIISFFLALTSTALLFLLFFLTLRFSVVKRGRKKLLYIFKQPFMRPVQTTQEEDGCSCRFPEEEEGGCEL
Series [2] deals with T2, CD137. Kind of series: CD137 Biacore (SPR) binding assay. Also noted: purchased R&D systems. As to conditions: biotinylated human CD137, 25° C. The essentials:
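Biotinylated human CD137 captured (270-1500 RU) on streptavidin-coupled dextran chip; peptides up to 500 nM in PBS/0.05% Tween 20, 0.5% DMSO, at 25°C, 60 s association, 900 s dissociation. Double-referenced data fitted to 1:1 binding model, with mass transport where appropriate.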

Take `CCCC[C@@H]1NC(=O)[C@H](Cc2ccc(O)cc2)NC(=O)[C@@H]2CCCN2C(=O)[C@H](CC(=O)O)NC(=O)[C@H](C)NC(=O)[C@H](Cc2ccccc2)NC(=O)[C@@H]2CSCCC(=O)N3CN(CN(C3)C(=O)CCSC[C@@H](C(=O)N[C@@H](CNC(=O)CCc3cn(CCCNC(=O)CN(C)C(=O)CN(C)C(=O)CN(C)C(=O)CN(C)C(=O)CN(C)C(=O)COCCOCCOCCOCCOCCNC(=O)N[C@H]4CSCCC(=O)N5CN6CN(C5)C(=O)CCSC[C@H](NC(=O)[C@@H](CC(=O)O)NC(=O)[C@H](Cc5cccc7ccccc57)NC(=O)[C@@H]5CCCN5C4=O)C(=O)N[C@@H](CCSC)C(=O)N[C@@H](CCCCNC(=N)N)C(=O)N[C@@H](CC(=O)O)C(=O)N[C@@H](Cc4c[nH]c5ccccc45)C(=O)N[C@@H](CO)C(=O)N[C@@H]([C@@H](C)O)C(=O)N4CCC[C@H]4C(=O)N4C[C@H](O)C[C@H]4C(=O)N[C@@H](Cc4c[nH]c5ccccc45)C(=O)N[C@H](C(N)=O)CSCCC6=O)nn3)C(N)=O)NC1=O)C(=O)CCSC[C@H](NC(=O)[C@H](C)NC(C)=O)C(=O)N[C@@H]([C@@H](C)CC)C(=O)N[C@@H](CCC(=O)O)C(=O)N[C@@H](CCC(=O)O)C(=O)NCC(=O)N[C@@H](CCC(N)=O)C(=O)N[C@@H](Cc1ccc(O)cc1)C(=O)N2` [BCY9410]: the Kd turned out to be 1.49 nM at human Nectin-4 protein and 65.8 nM on CD137 [2]. This molecule also yielded an EC50 at CD137 [1] of 1.3 nM. Besides, the “Fold Induction over Background” value on CD137 [1] is listed as 24 fold.

As for `CCCC[C@@H]1NC(=O)[C@H](Cc2ccc(O)cc2)NC(=O)[C@@H]2CCCN2C(=O)[C@H](CC(=O)O)NC(=O)[C@H](C)NC(=O)[C@H](Cc2ccccc2)NC(=O)[C@@H]2CSCCC(=O)N3CN(CN(C3)C(=O)CCSC[C@@H](C(=O)N[C@@H](CNC(=O)CCc3cn(CCCNC(=O)CN(C)C(=O)CN(C)C(=O)CN(C)C(=O)CN(C)C(=O)CN(C)C(=O)CN(C)C(=O)CN(C)C(=O)CN(C)C(=O)CN(C)C(=O)CN(C)C(=O)COCCOCCOCCOCCOCCOCCOCCOCCOCCOCCNC(=O)N[C@H]4CSCCC(=O)N5CN6CN(C5)C(=O)CCSC[C@H](NC(=O)[C@@H](CC(=O)O)NC(=O)[C@H](Cc5cccc7ccccc57)NC(=O)[C@@H]5CCCN5C4=O)C(=O)N[C@@H](CCSC)C(=O)N[C@@H](CCCCNC(=N)N)C(=O)N[C@@H](CC(=O)O)C(=O)N[C@@H](Cc4c[nH]c5ccccc45)C(=O)N[C@@H](CO)C(=O)N[C@@H]([C@@H](C)O)C(=O)N4CCC[C@H]4C(=O)N4C[C@H](O)C[C@H]4C(=O)N[C@@H](Cc4c[nH]c5ccccc45)C(=O)N[C@H](C(N)=O)CSCCC6=O)nn3)C(N)=O)NC1=O)C(=O)CCSC[C@H](NC(=O)[C@H](C)NC(C)=O)C(=O)N[C@@H]([C@@H](C)CC)C(=O)N[C@@H](CCC(=O)O)C(=O)N[C@@H](CCC(=O)O)C(=O)NCC(=O)N[C@@H](CCC(N)=O)C(=O)N[C@@H](Cc1ccc(O)cc1)C(=O)N2` [BCY9408], binding at human Nectin-4 protein was put at a Kd of 1.57 nM. For the same molecule, on CD137 [1], the EC50 stood at 1.1 nM and the “Fold Induction over Background” value was found to be 20 fold. On CD137 [2], this molecule registered a Kd of 105 nM.

The molecule `CCCC[C@@H]1NC(=O)[C@H](Cc2ccc(O)cc2)NC(=O)[C@@H]2CCCN2C(=O)[C@H](CC(=O)O)NC(=O)[C@H](C)NC(=O)[C@H](Cc2ccccc2)NC(=O)[C@@H]2CSCCC(=O)N3CN(CN(C3)C(=O)CCSC[C@@H](C(=O)N[C@@H](CNC(=O)CCc3cn(CCCNC(=O)CN(C)C(=O)CN(C)C(=O)CN(C)C(=O)CN(C)C(=O)CN(C)C(=O)CN(C)C(=O)CN(C)C(=O)CN(C)C(=O)CN(C)C(=O)CN(C)C(=O)CN(C)C(=O)CN(C)C(=O)CN(C)C(=O)CN(C)C(=O)CN(C)C(=O)COCCOCCOCCOCCOCCNC(=O)N[C@H]4CSCCC(=O)N5CN6CN(C5)C(=O)CCSC[C@H](NC(=O)[C@@H](CC(=O)O)NC(=O)[C@H](Cc5cccc7ccccc57)NC(=O)[C@@H]5CCCN5C4=O)C(=O)N[C@@H](CCSC)C(=O)N[C@@H](CCCCNC(=N)N)C(=O)N[C@@H](CC(=O)O)C(=O)N[C@@H](Cc4c[nH]c5ccccc45)C(=O)N[C@@H](CO)C(=O)N[C@@H]([C@@H](C)O)C(=O)N4CCC[C@H]4C(=O)N4C[C@H](O)C[C@H]4C(=O)N[C@@H](Cc4c[nH]c5ccccc45)C(=O)N[C@H](C(N)=O)CSCCC6=O)nn3)C(N)=O)NC1=O)C(=O)CCSC[C@H](NC(=O)[C@H](C)NC(C)=O)C(=O)N[C@@H]([C@@H](C)CC)C(=O)N[C@@H](CCC(=O)O)C(=O)N[C@@H](CCC(=O)O)C(=O)NCC(=O)N[C@@H](CCC(N)=O)C(=O)N[C@@H](Cc1ccc(O)cc1)C(=O)N2` [BCY9409] showed a Kd at human Nectin-4 protein of 1.66 nM. For the same molecule, on CD137 [1], a half-maximal effect (EC50) was put at 1.2 nM and the “Fold Induction over Background” value came to 24 fold. In addition, on CD137 [2], the Kd worked out at 97.7 nM.

At human Nectin-4 protein, `CCCC[C@@H]1NC(=O)[C@H](Cc2ccc(O)cc2)NC(=O)[C@@H]2CCCN2C(=O)[C@H](CC(=O)O)NC(=O)[C@H](C)NC(=O)[C@H](Cc2ccccc2)NC(=O)[C@@H]2CSCCC(=O)N3CN(CN(C3)C(=O)CCSC[C@@H](C(=O)N[C@@H](CNC(=O)CCc3cn(CCOCCOCCOCCOCCOCCNC(=O)N[C@H]4CSCCC(=O)N5CN6CN(C5)C(=O)CCSC[C@H](NC(=O)[C@@H](CC(=O)O)NC(=O)[C@H](Cc5cccc7ccccc57)NC(=O)[C@@H]5CCCN5C4=O)C(=O)N[C@@H](CCSC)C(=O)N[C@@H](CCCCNC(=N)N)C(=O)N[C@@H](CC(=O)O)C(=O)N[C@@H](Cc4c[nH]c5ccccc45)C(=O)N[C@@H](CO)C(=O)N[C@@H]([C@@H](C)O)C(=O)N4CCC[C@H]4C(=O)N4C[C@H](O)C[C@H]4C(=O)N[C@@H](Cc4c[nH]c5ccccc45)C(=O)N[C@H](C(N)=O)CSCCC6=O)nn3)C(N)=O)NC1=O)C(=O)CCSC[C@H](NC(=O)[C@H](C)NC(C)=O)C(=O)N[C@@H]([C@@H](C)CC)C(=O)N[C@@H](CCC(=O)O)C(=O)N[C@@H](CCC(=O)O)C(=O)NCC(=O)N[C@@H](CCC(N)=O)C(=O)N[C@@H](Cc1ccc(O)cc1)C(=O)N2` [BCY9411] returned a Kd of 1.48 nM. Also, at CD137 [1], the EC50 was found to be 14 nM and the “Fold Induction over Background” value was found to be 41 fold. Also, binding at CD137 [2] was put at a Kd of 71.1 nM.
